In patent US6426068B1, “Therapeutic uses of heterologous superoxide dismutase (HSD), and method for selecting said HSD” (Fractales Biotech, priority 1998, dated 2002):

Tests used:
human macrophages [1] = test: TNF-α production by human macrophages with β-amyloid or MPTP; details: 10 μg/ml, 48 hours, FIGS. 12 and 13
Method: The CLCs are isolated from 23 healthy individuals, under the same conditions as those set out above. The adherent cell populations are obtained by incubating the CLCs (1×10^7 cells/ml) either in Petri dishes (Nunc) or in 6-well culture plates (Nunc) for 30 min at 37° C. in an RPMI 1640 medium supplemented with foetal calf serum at 10% (v/v) . The monocytes are then recovered by scraping the plates after adding a cold solution of PBS containing 1 mM EDTA. Cell preparations which comprise more than 85% of viable macrophages are estimated by Trypan blue exclusion and staining with a nonspecific esterase.
The macrophages are cultured at a final concentration of 2×10^6 cells/ml in 12- or 24-well plastic culture plates (Nunc) and in an Iscove medium supplemented with 100 U/ml of penicillin, 100 μg/ml of streptomycin and 5% of foetal calf serum.
The cells are incubated for 48 hours at 37° C. in a humid atmosphere (100%) containing 95% air and 5% CO2, in the presence of absence of 10 μg/ml of β-amyloid or MPTP.
The cell supernatants are recovered for measuring the TNF and the nitrites, while apoptosis is evaluated directly on the cells.

human macrophages [2] = test: Apoptosis of human macrophages with β-amyloid or MPTP; assay type: cell-based; details: 10 μg/ml, 48 hours, FIGS. 12 and 13
[3] = tested on: glutathione peroxidase (GPx), Mn—SOD, inducible NO synthase (iNOs); test: Immuno-redox activity of HSD1/anti-HSD1 immune complexes in U937 and U1 cells; details: noninfected U937 and U1 cells; HSD1 10 μg/ml (30 U/ml), anti-HSD1 antibodies 10 μg/ml; FIG. 16
Method: U937 cells which are chronically infected with HIV-1 (U1 cells), and which have a low p24 production level (<250 pg/10^5 cells/ml in a 3-day supernatant) are cultured in an RPMI medium supplemented with L-glutamine, penicillin, streptomycin and foetal calf serum at 10% (Gibco products). They are used for the production of p24, and to evaluate apoptosis.

Mn—SOD [4] = test: Endogenous SOD (dismutase) activity of U937 cells after exogenous SOD; assay type: cell-based, human; details: SOD 30 U/ml, FIG. 2
Method: U937 cells, untreated or treated with HIV-Tat protein, in the presence or absence of the abovementioned SODs, are lysed in a detergent buffer comprising: 10 mM Tris-HCl pH 7.4, 0.1% of SDS, 1% of Nonidet P-40, 10 μg/ml of leupeptin, 100 μg/ml of PMSF and 2 μg/ml of aprotinin, by heating at 85° C. for 5 min. The lysate is then briefly sonicated (3×30 sec).
The total superoxide dismutase activity is measured on the sonicated lysates obtained as described above by its capacity to inhibit the reduction of ferrocytochrome c by the superoxide radicals produced by the xanthin oxidase/xanthine system (McCord. J. M., 1969, J. Biol. Chem. 244, 6049). One unit of superoxide dismutase is defined as the amount which inhibits 50% of the reduction of cytochrome c at room temperature and at pH 7.8.

Mn—SOD [5] = test: Endogenous SOD expression in U937 cells (SDS-PAGE / immunoblot); assay type: cell-based, human; details: HIV-Tat activated U937 cells (10 μg/ml Tat); SOD 30 U/ml, 24 hours; FIG. 1
[6] = tested on: glutathione peroxidase (Gpx); test: Glutathione peroxidase transcription in U937 cells (RT-PCR); details: FIG. 3
Method: The human promonocytic leukaemia cell line U937 is cultured at a final concentration of 2×10^5 cells/ml in an Iscove medium enriched with 100 U/ml of penicillin, 100 μg/ml of streptomycin and 5% of foetal calf serum, in the presence (activated) or absence (control) of 10 μg/ml of HIV-Tat protein.
After stimulation and treatment with various sources and concentrations of SOD, the U937 cells are harvested in a phosphate-buffered cold physiological saline, and counted. The total RNA is extracted by standard techniques (Chomczynski. P., 1987, Anal. Biochem. 162, 156), in 1 ml of TRIzol reagent (Life Technologies ≠15596), according to the manufacturer's instructions. After its extraction, the RNA is precipitated with isopropyl alcohol, and the pellets are washed in 70% ethanol and air dried. The dried pellets are resuspended in 50 μl of 0.5 mM EDTA, pH 8, and quantified by spectrophotometry. […]
The amplification program comprises: five cycles comprising 60 sec. at 92° C., 60 sec. at 58° C. and 60 sec. at 74° C., followed by 25 cycles comprising 30 sec. at 92° C., 60 sec. at 60° C. and 60 sec. at 74° C., and to finish, the temperature is kept at 74° C. for another 3 minutes. Positive PCR amplifications are then determined by an electrophoresis on 1.2% agarose gel in 0.5×TAE buffer. […]

[7] = tested on: inflammation induced with carrageenans; test: Rat model of inflammation induced with carrageenans; assay type: in vivo
[8] = tested on: inflammation induced with adriamycin; test: Rat model of inflammation induced with adriamycin; assay type: in vivo

Molecule | anti-inflammatory activity (rank order of SODs) [7] | anti-inflammatory activity (rank order of SODs) [8] | also measured
CN1CC=C(c2ccccc2)CC1 [MPTP] | – | – | production of TNF-α by macrophages (human macrophages [1]): stimulate the production of TNF-α; death of macrophages by apoptosis (human macrophages [2]): induce their death by apoptosis
HSD1: bovine SOD (heterologous), Sigma, St Louis, Mo. | – | – | expression of glutathione peroxidase (GPx), Mn—SOD and inducible NO synthase (iNOs) [3]: stimulate the expression; lifting of HIV-Tat protein-induced inhibition of Mn—SOD expression (endogenous SOD activity) (Mn—SOD [4]): can be lifted
HuSOD: recombinant human Cu/Zn SOD, homologous comparator | – | – | Mn—SOD expression (Mn—SOD [5]): remains undetectable; Gpx transcription [6]: does not enable it; lifting of HIV-Tat protein-induced inhibition of Mn—SOD expression (endogenous SOD activity) (Mn—SOD [4]): not lifted
bovine Cu—SOD: Cu/Zn—SOD of bovine origin | Mn—SOD of E. coli>bovine Cu—SOD>human Cu—SOD>yeast Cu—SOD>plant Cu—SOD | bovine Cu—SOD>Mn—SOD of E. coli | –
human Cu—SOD: human Cu—SOD | Mn—SOD of E. coli>bovine Cu—SOD>human Cu—SOD>yeast Cu—SOD>plant Cu—SOD | – | –
rat Cu—SOD: rat (homologous) Cu—SOD | significant pro-inflammatory activity | totally inactive | –
β-amyloid | – | – | production of TNF-α by macrophages (human macrophages [1]): stimulate the production of TNF-α; death of macrophages by apoptosis (human macrophages [2]): induce their death by apoptosis
yeast Cu—SOD: yeast Cu—SOD (protein, UniProt P00445 2-154, looked up) Superoxide dismutase [Cu-Zn]: VQAVAVLKGDAGVSGVVKFEQASESEPTTVSYEIAGNSPNAERGFHIHEFGDATNGCVSAGPHFNPFKKTHGAPTDEVRHVGDMGNVKTDENGVAKGSFKDSLIKLIGPTSVVGRSVVIHAGQDDLGKGDTEESLKTGNAGPRPACGVIGLTN | Mn—SOD of E. coli>bovine Cu—SOD>human Cu—SOD>yeast Cu—SOD>plant Cu—SOD | generates a pro-inflammatory response | –
Mn—SOD of E. coli: manganese SOD of E. coli (protein, UniProt P00448 2-206, looked up) Superoxide dismutase [Mn]: SYTLPSLPYAYDALEPHFDKQTMEIHHTKHHQTYVNNANAALESLPEFANLPVEELITKLDQLPADKKTVLRNNAGGHANHSLFWKGLKKGTTLQGDLKAAIERDFGSVDNFKAEFEKAAASRFGSGWAWLVLKGDKLAVVSTANQDSPLMGEAISGASGFPIMGLDVWEHAYYLKFQNRRPDYIKEFWNVVNWDEAAARFAAKK | Mn—SOD of E. coli>bovine Cu—SOD>human Cu—SOD>yeast Cu—SOD>plant Cu—SOD | bovine Cu—SOD>Mn—SOD of E. coli | –
